The experiment concerns the target T1, PRKCG (PKC gamma) (Homo sapiens, UniProt P05129).
T1 construct: purchased Thermo Fisher Scientific (Life Technologies) SelectScreen
The experiment in a line: SelectScreen Z'LYTE. It is filed as biochemical. The procedure, abridged: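 Percent values come from Thermo SelectScreen profiling of NU5455, combining activity and binding assays. CSF1R was run in Z'LYTE format at Km app ATP, and CAMK1 in Adapta format with ATP listed at 10.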

Each structure is given as a SMILES string.

The values that follow come from article PMC6934184, “Selective DNA-PKcs inhibition extends the therapeutic index of localized radiotherapy and chemotherapy” (The Journal of Clinical Investigation, 2019).

`CN(C(=O)CN1CCOCC1)c1ccc2sc3c(-c4cccc5c(=O)cc(N6CC7CCC(C6)O7)oc45)cccc3c2c1` [NU5455] had an inhibition at 1 µM of 7.6%.

A word on the inhibition: it is how much of the control response was suppressed. A higher inhibition goes with strong suppression.
